# Source: ChEMBL document CHEMBL4257449, “New N-(2-phenyl-4-oxo-1,3-thiazolidin-3-yl)-1,2-benzothiazole-3-carboxamides and acetamides as antimicrobial agents” (2017)
# What was measured:
# Bacillus cereus [1] = assay: Antibacterial activity against Bacillus cereus after 24 hrs by microdilution method; assay type: functional
# Bacillus cereus [2] = assay: Bactericidal activity against Bacillus cereus incubated for 24 hrs followed by serial sub-cultivation and measured after 24 hrs by microdilution method; assay type: functional
# Micrococcus flavus [3] = assay: Antibacterial activity against Micrococcus flavus ATCC 10240 after 24 hrs by microdilution method; assay type: functional; conditions: ATCC 10240, 24 h
# Micrococcus flavus [4] = assay: Bactericidal activity against Micrococcus flavus ATCC 10240 incubated for 24 hrs followed by serial sub-cultivation and measured after 24 hrs by microdilution method; assay type: functional
# Staphylococcus aureus [5] = assay: Antibacterial activity against Staphylococcus aureus ATCC 6538 after 24 hrs by microdilution method; assay type: functional; conditions: ATCC 6538, 24 h
# Staphylococcus aureus [6] = assay: Bactericidal activity against Staphylococcus aureus ATCC 6538 incubated for 24 hrs followed by serial sub-cultivation and measured after 24 hrs by microdilution method; assay type: functional
# Listeria monocytogenes [7] = assay: Antibacterial activity against Listeria monocytogenes NCTC 7973 after 24 hrs by microdilution method; assay type: functional; conditions: NCTC 7973, 24 h
# Listeria monocytogenes [8] = assay: Bactericidal activity against Listeria monocytogenes NCTC 7973 incubated for 24 hrs followed by serial sub-cultivation and measured after 24 hrs by microdilution method; assay type: functional
# Escherichia coli [9] = assay: Antibacterial activity against Escherichia coli ATCC 35210 after 24 hrs by microdilution method; assay type: functional; conditions: ATCC 35210, 24 h
# Escherichia coli [10] = assay: Bactericidal activity against Escherichia coli ATCC 35210 incubated for 24 hrs followed by serial sub-cultivation and measured after 24 hrs by microdilution method; assay type: functional
# Enterobacter cloacae [11] = assay: Antibacterial activity against Enterobacter cloacae after 24 hrs by microdilution method; assay type: functional
# Enterobacter cloacae [12] = assay: Bactericidal activity against Enterobacter cloacae incubated for 24 hrs followed by serial sub-cultivation and measured after 24 hrs by microdilution method; assay type: functional
# Pseudomonas aeruginosa [13] = assay: Antibacterial activity against Pseudomonas aeruginosa ATCC 27853 after 24 hrs by microdilution method; assay type: functional; conditions: ATCC 27853, 24 h
# Pseudomonas aeruginosa [14] = assay: Bactericidal activity against Pseudomonas aeruginosa ATCC 27853 incubated for 24 hrs followed by serial sub-cultivation and measured after 24 hrs by microdilution method; assay type: functional
# Salmonella typhimurium [15] = assay: Antibacterial activity against Salmonella typhimurium ATCC 13311 after 24 hrs by microdilution method; assay type: functional, Salmonella enterica subsp. enterica serovar Typhimurium; conditions: Salmonella enterica, ATCC 13311, 24 h
# Salmonella typhimurium [16] = assay: Bactericidal activity against Salmonella typhimurium ATCC 13311 incubated for 24 hrs followed by serial sub-cultivation and measured after 24 hrs by microdilution method; assay type: functional, Salmonella enterica subsp. enterica serovar Typhimurium
# Penicillium ochrochloron [17] = assay: Antifungal activity against Penicillium ochrochloron ATCC 9112 after 72 hrs by serial dilution method; assay type: functional; conditions: ATCC 9112, 72 h
# Aspergillus versicolor [18] = assay: Antifungal activity against Aspergillus versicolor ATCC 11730 after 72 hrs by serial dilution method; assay type: functional; conditions: ATCC 11730, 72 h
# Aspergillus fumigatus [19] = assay: Antifungal activity against Aspergillus fumigatus after 72 hrs by serial dilution method; assay type: functional
# Aspergillus fumigatus [20] = assay: Fungicidal activity against Aspergillus fumigatus incubated for 72 hrs followed by serial sub-cultivation for 72 hrs and measured after 72 hrs by serial dilution method; assay type: functional
# Aspergillus versicolor [21] = assay: Fungicidal activity against Aspergillus versicolor ATCC 11730 incubated for 72 hrs followed by serial sub-cultivation for 72 hrs and measured after 72 hrs by serial dilution method; assay type: functional
# Aspergillus ochraceus [22] = assay: Antifungal activity against Aspergillus ochraceus ATCC 12066 after 72 hrs by serial dilution method; assay type: functional; conditions: ATCC 12066, 72 h
# Aspergillus ochraceus [23] = assay: Fungicidal activity against Aspergillus ochraceus ATCC 12066 incubated for 72 hrs followed by serial sub-cultivation for 72 hrs and measured after 72 hrs by serial dilution method; assay type: functional
# Aspergillus niger [24] = assay: Antifungal activity against Aspergillus niger ATCC 6275 after 72 hrs by serial dilution method; assay type: functional; conditions: ATCC 6275, 72 h
# Aspergillus niger [25] = assay: Fungicidal activity against Aspergillus niger ATCC 6275 incubated for 72 hrs followed by serial sub-cultivation for 72 hrs and measured after 72 hrs by serial dilution method; assay type: functional
# Trichoderma viride [26] = assay: Antifungal activity against Trichoderma viride IAM 5061 after 72 hrs by serial dilution method; assay type: functional; conditions: IAM 5061, 72 h
# Trichoderma viride [27] = assay: Fungicidal activity against Trichoderma viride IAM 5061 incubated for 72 hrs followed by serial sub-cultivation for 72 hrs and measured after 72 hrs by serial dilution method; assay type: functional
# Talaromyces funiculosus [28] = assay: Antifungal activity against Penicillium funiculosum ATCC 36839 after 72 hrs by serial dilution method; assay type: functional; conditions: ATCC 36839, 72 h
# Talaromyces funiculosus [29] = assay: Fungicidal activity against Penicillium funiculosum ATCC 36839 incubated for 72 hrs followed by serial sub-cultivation for 72 hrs and measured after 72 hrs by serial dilution method; assay type: functional
# Penicillium ochrochloron [30] = assay: Fungicidal activity against Penicillium ochrochloron ATCC 9112 incubated for 72 hrs followed by serial sub-cultivation for 72 hrs and measured after 72 hrs by serial dilution method; assay type: functional
# Candida albicans [31] = assay: Antifungal activity against Candida albicans after 72 hrs by serial dilution method; assay type: functional
# Candida albicans [32] = assay: Fungicidal activity against Candida albicans incubated for 72 hrs followed by serial sub-cultivation for 72 hrs and measured after 72 hrs by serial dilution method; assay type: functional
MIC (Bacillus cereus [1]) [µM],MIC (Micrococcus flavus [3]) [µM],MIC (Staphylococcus aureus [5]) [µM],MIC (Listeria monocytogenes [7]) [µM],MIC (Escherichia coli [9]) [µM],MIC (Enterobacter cloacae [11]) [µM],MIC (Pseudomonas aeruginosa [13]) [µM],MIC (Salmonella typhimurium [15]) [µM],SMILES,MBC99.5 (Bacillus cereus [2]) [×10⁻² umol/ml],MBC99.5 (Micrococcus flavus [4]) [×10⁻² umol/ml],MBC99.5 (Staphylococcus aureus [6]) [×10⁻² umol/ml],MBC99.5 (Listeria monocytogenes [8]) [×10⁻² umol/ml],MBC99.5 (Escherichia coli [10]) [×10⁻² umol/ml],MBC99.5 (Enterobacter cloacae [12]) [×10⁻² umol/ml],MBC99.5 (Pseudomonas aeruginosa [14]) [×10⁻² umol/ml],MBC99.5 (Salmonella typhimurium [16]) [×10⁻² umol/ml],MIC (Penicillium ochrochloron [17]) [µM],MIC (Aspergillus versicolor [18]) [µM],MIC (Aspergillus fumigatus [19]) [µM],MFC99.5 (Aspergillus fumigatus [20]) [×10⁻² umol/ml],other results
248,248,248,372,372,248,744,248,CC1(C)S[C@@H]2[C@H](NC(=O)[C@H](N)c3ccccc3)C(=O)N2[C@H]1C(=O)O [AMPICILLIN],37.2,37.2,37.2,74.4,49.2,37.2,124,49.2,,,,,
,,,,,,,,c1ccc(-c2ccc(C(c3ccccc3)n3ccnc3)cc2)cc1 (centres undefined) [BIFONAZOLE],,,,,,,,,640,320,480,64,MFC99.5 (Aspergillus versicolor [21]): 64 ×10⁻² umol/ml; MIC (Aspergillus ochraceus [22]): 480 µM; MFC99.5 (Aspergillus ochraceus [23]): 80 ×10⁻² umol/ml; MIC (Aspergillus niger [24]): 480 µM; MFC99.5 (Aspergillus niger [25]): 64 ×10⁻² umol/ml; MIC (Trichoderma viride [26]): 640 µM; MFC99.5 (Trichoderma viride [27]): 80 ×10⁻² umol/ml; MIC (Talaromyces funiculosus [28]): 640 µM; MFC99.5 (Talaromyces funiculosus [29]): 80 ×10⁻² umol/ml; MFC99.5 (Penicillium ochrochloron [30]): 80.5 ×10⁻² umol/ml; MIC (Candida albicans [31]): 320 µM; MFC99.5 (Candida albicans [32]): 64 ×10⁻² umol/ml
,,,,,,,,CC(=O)N1CCN(c2ccc(OCC3COC(Cn4ccnc4)(c4ccc(Cl)cc4Cl)O3)cc2)CC1 (centres undefined) [KETOCONAZOLE],,,,,,,,,1900,380,380,95,MFC99.5 (Aspergillus versicolor [21]): 95 ×10⁻² umol/ml; MIC (Aspergillus ochraceus [22]): 280 µM; MFC99.5 (Aspergillus ochraceus [23]): 38 ×10⁻² umol/ml; MIC (Aspergillus niger [24]): 380 µM; MFC99.5 (Aspergillus niger [25]): 95 ×10⁻² umol/ml; MIC (Trichoderma viride [26]): 1900 µM; MFC99.5 (Trichoderma viride [27]): 285 ×10⁻² umol/ml; MIC (Talaromyces funiculosus [28]): 380 µM; MFC99.5 (Talaromyces funiculosus [29]): 95 ×10⁻² umol/ml; MFC99.5 (Penicillium ochrochloron [30]): 285 ×10⁻² umol/ml; MIC (Candida albicans [31]): 380 µM; MFC99.5 (Candida albicans [32]): 56 ×10⁻² umol/ml
43,86,172,258,172,43,172,172,CN[C@@H]1[C@H](O[C@H]2[C@H](O[C@H]3[C@H](O)[C@@H](O)[C@H](N=C(N)N)[C@@H](O)[C@@H]3N=C(N)N)O[C@@H](C)[C@]2(O)C=O)O[C@@H](CO)[C@H](O)[C@H]1O [STREPTOMYCIN],8.6,17.2,34.4,51.6,34.4,8.6,34.4,34.4,,,,,
